{"source": "PubChem BioAssay (NCI)", "assay_in_all_cases": "NCI-60 cell line screen, 48 h", "key": {"[1]": {"test_system": "PC-3 prostate"}, "[2]": {"test_system": "RPMI-8226 leukemia"}, "[3]": {"test_system": "A498 renal"}, "[4]": {"test_system": "SNB-19 CNS"}, "[5]": {"test_system": "OVCAR-3 ovarian"}, "[6]": {"test_system": "HL-60(TB) leukemia"}, "[7]": {"test_system": "SF-539 CNS"}, "[8]": {"test_system": "UACC-62 melanoma"}, "[9]": {"test_system": "NCI-H522 lung"}, "[10]": {"test_system": "BT-549 breast"}}, "note": "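Protocol summary: plate cells (96-well), add compound at 5 concentrations, incubate 48 h, interpolate endpoints linearly. GI50 is the concentration that inhibits growth by half. At the TGI there is no net growth.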", "data": [{"smiles": "Nc1ccncc1/C=C1/C(=O)Nc2ccccc21", "values": [{"measurement": "GI50", "setting": "[1]", "value": 41.1, "unit": "µM"}, {"measurement": "TGI", "setting": "[1]", "value": "> 100", "unit": "µM"}, {"measurement": "GI50", "setting": "[2]", "value": "> 100", "unit": "µM"}, {"measurement": "TGI", "setting": "[2]", "value": "> 100", "unit": "µM"}, {"measurement": "GI50", "setting": "[3]", "value": 18.7, "unit": "µM"}, {"measurement": "TGI", "setting": "[3]", "value": 52.7, "unit": "µM"}, {"measurement": "GI50", "setting": "[4]", "value": 36.8, "unit": "µM"}, {"measurement": "TGI", "setting": "[4]", "value": "> 100", "unit": "µM"}, {"measurement": "GI50", "setting": "[5]", "value": 25.4, "unit": "µM"}, {"measurement": "TGI", "setting": "[5]", "value": 76.3, "unit": "µM"}, {"measurement": "GI50", "setting": "[6]", "value": 14.5, "unit": "µM"}, {"measurement": "TGI", "setting": "[6]", "value": 39.8, "unit": "µM"}, {"measurement": "GI50", "setting": "[7]", "value": 34.6, "unit": "µM"}, {"measurement": "TGI", "setting": "[7]", "value": "> 100", "unit": "µM"}, {"measurement": "GI50", "setting": "[8]", "value": 32.5, "unit": "µM"}, {"measurement": "TGI", "setting": "[8]", "value": "> 100", "unit": "µM"}, {"measurement": "GI50", "setting": "[9]", "value": 24, "unit": "µM"}, {"measurement": "TGI", "setting": "[9]", "value": 71.6, "unit": "µM"}, {"measurement": "GI50", "setting": "[10]", "value": 40.2, "unit": "µM"}, {"measurement": "TGI", "setting": "[10]", "value": "> 100", "unit": "µM"}]}]}
